For the first assay, the target named is NLRP3 inflammasome (Homo sapiens (Human), UniProt Q96P20). Put plainly: Evaluation of NLRP3 inflammasome inhibitory activity (inhibition of IL-1β production in LPS/Nigericin-stimulated THP1-Null cells). It counts as cell-based. Conditions: IL-1β production in THP1-Null cells, PMA, LPS 1 μg/mL, Nigericin 7.5 μmol/L, AlphaLISA. A digest of the protocol: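 THP1-Null cells primed with 1 μg/mL LPS, then treated with test compound; supernatant IL-1β quantified by AlphaLISA. Inhibition calculated with blank wells as 100% and control wells as 0%.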
Chain of NLRP3 inflammasome (Q96P20 whole entry): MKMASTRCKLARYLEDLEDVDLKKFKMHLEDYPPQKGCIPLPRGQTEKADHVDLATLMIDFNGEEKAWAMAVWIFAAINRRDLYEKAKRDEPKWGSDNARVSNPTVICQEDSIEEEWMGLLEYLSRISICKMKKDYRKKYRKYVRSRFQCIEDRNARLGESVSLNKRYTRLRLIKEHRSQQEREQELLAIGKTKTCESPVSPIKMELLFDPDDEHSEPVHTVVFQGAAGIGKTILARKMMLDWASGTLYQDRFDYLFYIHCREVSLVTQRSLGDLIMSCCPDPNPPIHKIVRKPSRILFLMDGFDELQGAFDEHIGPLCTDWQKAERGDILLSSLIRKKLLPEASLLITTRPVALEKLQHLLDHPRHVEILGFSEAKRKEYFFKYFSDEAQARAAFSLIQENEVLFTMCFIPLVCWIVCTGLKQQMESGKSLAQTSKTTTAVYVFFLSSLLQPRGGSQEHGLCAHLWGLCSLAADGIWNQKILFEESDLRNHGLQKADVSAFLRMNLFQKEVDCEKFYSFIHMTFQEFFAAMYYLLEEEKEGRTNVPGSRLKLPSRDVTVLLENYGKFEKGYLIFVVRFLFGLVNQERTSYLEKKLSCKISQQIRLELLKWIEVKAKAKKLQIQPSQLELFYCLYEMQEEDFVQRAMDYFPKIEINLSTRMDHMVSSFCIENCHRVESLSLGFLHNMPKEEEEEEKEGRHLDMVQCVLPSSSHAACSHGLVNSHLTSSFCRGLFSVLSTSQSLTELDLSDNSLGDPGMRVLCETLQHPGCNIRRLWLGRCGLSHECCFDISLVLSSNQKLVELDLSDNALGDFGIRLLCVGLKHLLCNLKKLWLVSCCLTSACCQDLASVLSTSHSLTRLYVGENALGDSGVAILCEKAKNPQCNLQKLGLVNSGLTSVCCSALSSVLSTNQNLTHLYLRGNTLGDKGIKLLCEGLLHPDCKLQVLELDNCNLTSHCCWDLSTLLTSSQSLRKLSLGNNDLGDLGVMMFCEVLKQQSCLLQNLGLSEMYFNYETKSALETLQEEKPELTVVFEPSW
(In general: In Alpha technology, singlet oxygen from a donor bead excites a nearby acceptor bead.)
As to `O=c1[nH]c(N2CCOCC2)nc2nn(-c3ccc(C4CC4)cc3OC(F)(F)F)cc12` [Example 208], the IC50 (in general, the concentration that gives 50% inhibition) amounted to 14 nM.

`CC(=O)N1CCCN(c2nc3nn(-c4ccc(C(F)(F)F)cc4Cl)cc3c(=O)[nH]2)CC1` [Example 134] gave an IC50 of 91 nM.

`Cc1cc(Br)ccc1-n1cc2c(=O)n(C)c(N3CCOCC3)nc2n1` [Example 88, 2-(4-bromo-2-methylphenyl)-5-methyl-6-morpholino-2,5-dihydro-4H-pyrazolo[3,4-d]pyrimidin-4-one] came in with an IC50 of 39 nM.

`O=c1[nH]c(N2CCOCCO2)nc2nn(-c3ccc(C4CC4)cc3C(F)(F)F)cc12` [Example 356] displayed an IC50 of 23 nM.

`O=c1[nH]c(N2CCCC2)nc2nn(-c3cccc4ccccc34)cc12` [Example 68] displayed an IC50 of 1200 nM.

In the case of `Cc1cc(Br)ccc1-n1cc2c(=O)[nH]c(N3CCN(c4ncccn4)CC3)nc2n1` [Example 149], the midpoint of inhibition, the IC50, lay at 21 nM.

On to `O=c1[nH]c(N2CCOCC2)nc2nn(-c3ccc(Cl)cc3CC3CC3)cc12` [Example 320], for which the IC50 amounted to 45 nM.

The molecule `Cc1cc(C)c(-n2cc3c(=O)[nH]c(N4CC5COCC5C4)nc3n2)c(C)c1` (stereo not shown) [Example 117] came in with an IC50 of 46 nM.

For `Cc1cc(Cl)cc(CO)c1-n1cc2c(=O)[nH]c(N3CCOCC3)nc2n1` [Example 158], the IC50 was 92 nM.

For `O=c1[nH]c(N2CCCC2)nc2nn(-c3ccc(F)cc3Cl)cc12` [Example 32], inhibition was half-maximal at 240 nM (IC50).

`O=c1[nH]c(N2CCOCC2)nc2nn(-c3ccc(Br)cc3CO)cc12` [Example 104]: the midpoint of inhibition, the IC50, lay at 140 nM.

`Cc1cc(Cl)ccc1-n1cc2c(=O)[nH]c(N3CCCOCC3)nc2n1` [Example 165] returned a 50% inhibitory concentration (IC50) of 29 nM.

`Cc1cc(Cl)cc(C(=O)C2CC2)c1-n1cc2c(=O)[nH]c(N3CCOCC3)nc2n1` [Example 167] had an IC50 of 430 nM.

`Cc1cc(C2=CCCCC2)ccc1-n1cc2c(=O)[nH]c(N3CCCC3)nc2n1` [Example 67] yielded an IC50 of 2300 nM.

For `Cc1cc(C2CCC2)cc(C)c1-n1cc2c(=O)[nH]c(N3CCOCC3)nc2n1` [Example 270], the IC50 came to 83 nM.

With `COCCN(C)c1nc2nn(-c3c(C)cc(Br)cc3C)cc2c(=O)[nH]1` [Example 337], the midpoint of inhibition, the IC50, lay at 47 nM.

In turn, `Cc1cc(Br)cc(C)c1-n1cc2c(=O)[nH]c(NC3COC3)nc2n1` [Example 274] came in with an IC50 of 580 nM.

As to `CC(C)Cc1ccccc1-n1cc2c(=O)[nH]c(N3CCOCC3)nc2n1` [Example 322], the half-inhibitory concentration (IC50) turned out to be 510 nM.

`Cc1cc(Br)cc(C)c1-n1cc2c(=O)[nH]c(N3CCC(C(C)(C)O)C3)nc2n1` (racemic) [Example 194]: the IC50 stood at 24 nM.

In turn, `COC1CCN(c2nc3nn(-c4c(C)cccc4C)cc3c(=O)[nH]2)C1` (racemic) [Example 54] registered an IC50 of 480 nM.

As to `Cc1cc(OC(F)(F)F)cc(C)c1-n1cc2c(=O)[nH]c(N3CCOCC3)nc2n1` [Example 200], half-maximal inhibition (IC50) required 29 nM.

Molecule `Cc1cc(OC(F)F)cc(C)c1-n1cc2c(=O)[nH]c(N3CCOCC3=O)nc2n1` [Example 354] showed a half-maximal inhibitory concentration (IC50) of 220 nM.

`Cc1cc(Br)cc(C)c1-n1cc2c(=O)[nH]c(N3C=COCC3)nc2n1` [Example 362] yielded a 50% inhibitory concentration (IC50) of 2.6 nM.

Consider `O=c1[nH]c(N2CCOCC2)nc2nn(-c3ccc(C(F)(F)F)cc3Cl)cc12` [Example 128], for which the concentration for half-maximal inhibition (IC50) is 28 nM.

`CO[C@H]1CCN(c2nc3nn(-c4c(C)cc(C5CC5)cc4C)cc3c(=O)[nH]2)C1` [Example 319] showed an IC50 of 24 nM.

Turning to `Cc1cc(C#N)ccc1-n1cc2c(=O)[nH]c(N3CCCC3)nc2n1` [Example 71], 1200 nM corresponded to half-maximal inhibition (IC50).

The molecule `COC[C@@H]1CCCN1c1nc2nn(-c3ccccc3C)cc2c(=O)[nH]1` [Example 42] registered an IC50 of 4200 nM.

Molecule `Cc1cc(Br)cc(C)c1-n1cc2c(=O)[nH]c(NC3CCCN(C)C3)nc2n1` (racemic) [Example 245] came in with an IC50 of 8 nM.

Regarding `Cc1cc(Br)cc(C)c1-n1cc2c(=O)[nH]c(NCC3CC3)nc2n1` [Example 228], 7.7 nM corresponded to half-maximal inhibition (IC50).

In the case of `Cc1cc(C)c(-n2cc3c(=O)[nH]c(N4CCC(O)CC4)nc3n2)c(C)c1` [Example 105], the IC50 stood at 64 nM.

`Cc1ccc(-n2cc3c(=O)[nH]c(N4CCCC4)nc3n2)cc1C` [Example 52] had an IC50 of 2100 nM.

Regarding `O=c1[nH]c(N2CCOCC2)nc2nn(-c3c(O)cc(C(F)(F)F)cc3Cl)cc12` [Example 257], the IC50 was found to be 69 nM.

Turning to `O=c1[nH]c(N2CCOCC2)nc2nn(-c3c(F)cc(Br)cc3C(F)(F)F)cc12` [Example 272], the IC50 was 22 nM.

`Cc1cc(C)c(-n2cc3c(=O)[nH]c(N4CCN(S(=O)(=O)C5CC5)CC4)nc3n2)c(C)c1` [Example 103]: the half-inhibitory concentration (IC50) came out at 6.5 nM.

`Cc1cc(Br)cc(C)c1-n1cc2c(=O)[nH]c(N(CCO)CCO)nc2n1` [Example 361] came in with an IC50 of 13 nM.

For `Cc1cc(Br)ccc1-n1cc2c(=O)[nH]c(N3CCC(C#N)C3)nc2n1` (racemic) [Example 90], the concentration for half-maximal inhibition (IC50) was 4.9 nM.

As to `Cc1cc(Br)ccc1-n1cc2c(=O)n(CC#N)c(N3CCN(S(C)(=O)=O)CC3)nc2n1` [Example 173], the IC50 came out at 120 nM.

`CC(C)(C)c1ccc(-n2cc3c(=O)[nH]c(N4CCOCC4)nc3n2)c(Br)c1` [Example 306]: inhibition was half-maximal at 85 nM (IC50).

As for `Cc1cc(Br)ccc1-n1cc2c(=O)[nH]c(N3CCN(S(=O)(=O)C4CC4)CC3)nc2n1` [Example 139], 5.3 nM corresponded to half-maximal inhibition (IC50).

Regarding `Cc1cccc(C)c1-n1cc2c(=O)[nH]c(N3CCOCC3)nc2n1` [Example 233], half-maximal inhibition (IC50) required 760 nM.

For `CCCCNc1nc2nn(-c3ccccc3C)cc2c(=O)[nH]1` [Example 61], the midpoint of inhibition, the IC50, lay at 680 nM.

In the case of `CONc1nc2nn(-c3c(C)cc(Br)cc3C)cc2c(=O)[nH]1` [Example 336], the half-inhibitory concentration (IC50) was 28 nM.

In turn, `Cc1ccccc1-n1cc2c(=O)[nH]c(N3CCCCC3)nc2n1` [Example 15] displayed a 50% inhibitory concentration (IC50) of 1500 nM.

The molecule `Cc1ccc(-n2cc3c(=O)[nH]c(N4CC(F)(F)C(F)(F)C4)nc3n2)c(C)c1` [Example 85] yielded a 50% inhibitory concentration (IC50) of 24 nM.

Regarding `COc1ccc(-n2cc3c(=O)[nH]c(N4CCCC4)nc3n2)c(C)c1` [Example 171], the half-inhibitory concentration (IC50) came out at 29 nM.

Consider `CO[C@@H]1CCN(c2nc3nn(-c4c(C)cc(Br)cc4C)cc3c(=O)[nH]2)C1` [Example 316], for which the 50% inhibitory concentration (IC50) was determined as 6.4 nM.

With `COCc1cc(Cl)ccc1-n1cc2c(=O)[nH]c(N3CCCC3)nc2n1` [Example 144], the midpoint of inhibition, the IC50, lay at 24 nM.

Turning to `Cc1cc(N2CCC2)cc(C)c1-n1cc2c(=O)[nH]c(N3CCOCC3)nc2n1` [Example 327], it took 80 nM to reach half-maximal inhibition (IC50).

`COCc1cc(Br)ccc1-n1cc2c(=O)[nH]c(N3CCOCC3)nc2n1` [Example 268] yielded an IC50 of 34 nM.

Regarding `O=c1[nH]c(N2CCCC2)nc2nn(-c3ccc(C(F)(F)F)cc3)cc12` [Example 49], the midpoint of inhibition, the IC50, lay at 340 nM.

`Cc1cc(C(C)C)cc(C)c1-n1cc2c(=O)[nH]c(N3CCOCC3)nc2n1` [Example 301] came in with an IC50 of 21 nM.

In turn, `Cc1cc(Br)ccc1-n1cc2c(=O)[nH]c(N3CCNC(=O)C3)nc2n1` [Example 78] showed an IC50 of 28 nM.

Take `O=c1[nH]c(N2CCOCC2)nc2nn(-c3ccc(C4CC4)cc3C(F)F)cc12` [Example 244]: the IC50 was determined as 22 nM.

In turn, `Cc1cc(C2CC2)cc(Cl)c1-n1cc2c(=O)[nH]c(N3C[C@@H]4C[C@H]3CO4)nc2n1` [Example 288] had an IC50 of 10 nM.

Consider `CC(C)(C)OC(=O)N1CCCN(c2nc3nn(-c4ccc(C(F)(F)F)cc4Cl)cc3c(=O)[nH]2)CC1` [Example 132], for which the IC50 was 74 nM.

In turn, `O=c1[nH]c(N2CC3CNCC3C2)nc2nn(-c3ccc(C(F)(F)F)cc3Cl)cc12` (stereo not shown) [Example 186] had a half-maximal inhibitory concentration (IC50) of 230 nM.

Molecule `Cc1cc(Br)cc(C)c1-n1cc2c(=O)[nH]c(N3CCC(C#N)C3)nc2n1` (racemic) [Example 323] returned a concentration for half-maximal inhibition (IC50) of 6.4 nM.

`CNc1nc2nn(-c3ccc(C)cc3C)cc2c(=O)[nH]1` [Example 65] had an IC50 of 80 nM.

`COC1CCN(c2nc3nn(-c4c(C)cc(C)cc4C)cc3c(=O)[nH]2)CC1` [Example 106] registered a 50% inhibitory concentration (IC50) of 96 nM.

The molecule `O=c1[nH]c(N2CCOCC2)nc2nn(-c3c(F)cc(C(F)(F)F)cc3Cl)cc12` [Example 189] showed a 50% inhibitory concentration (IC50) of 20 nM.

`Cc1ccc(-n2cc3c(=O)[nH]c(N4CCN(C)CC4)nc3n2)c(C)c1` [Example 84] gave an IC50 of 95 nM.

With `Cc1cc(Br)cc(C)c1-n1cc2c(=O)[nH]c(N3CCN(C)CC3)nc2n1` [Example 246], the half-inhibitory concentration (IC50) amounted to 15 nM.

In turn, `Cc1cc(C)c(-n2cc3c(=O)[nH]c(N4CCCC(CO)C4)nc3n2)c(C)c1` (racemic) [Example 116] came in with a concentration for half-maximal inhibition (IC50) of 79 nM.

For the molecule `Cc1cc(C2CC2)ccc1-n1cc2c(=O)[nH]c(N3CCOCC3)nc2n1` [Example 242], the half-maximal inhibitory concentration (IC50) is 24 nM.

For `Cc1cc(C)c(-n2cc3c(=O)[nH]c(N4CC(F)(F)C4)nc3n2)c(C)c1` [Example 92], the 50% inhibitory concentration (IC50) was found to be 11 nM.

As for `O=c1[nH]c(N2CCOCC2)nc2nn(-c3ccc(Cl)cc3C(F)(F)F)cc12` [Example 176], the concentration for half-maximal inhibition (IC50) turned out to be 27 nM.

Staying with this assay, now noted: IL-1β production in THP1-Null cells; test compound 0.0024 μM.
For the molecule `Cc1cc(C(F)(F)F)cc(C)c1-n1cc2c(=O)[nH]c(N3CCOC[C@H]3C)nc2n1` [Example 251], the inhibition (as a rule, the relative decrease from the control value, in per cent) at 0.0024 µM turned out to be 65%.

The same assay, now with this note: IL-1β production in THP1-Null cells; test compound 0.024 μM.
`COc1nc(N2CCOCC2)nc2nn(-c3ccc(Br)cc3C)cc12` [Example 89, 4-(2-(4-bromo-2-methylphenyl)-4-methoxy-2H-pyrazolo[3,4-d]pyrimidin-6-yl)morpholine] returned an inhibition at 0.024 µM of 77%.

Staying with this assay, now noted: IL-1β production in THP1-Null cells; test compound 2.4 μM.
In turn, `Cc1cc(Br)cc(C)c1-n1cc2c(OC(F)F)nc(N3CCOCC3)nc2n1` [Example 332] showed an inhibition at 2.4 µM of 33%.

The same assay, now with this note: IL-1β production in THP1-Null cells; test compound 24 μM.
With `Cc1ccccc1-n1cc2c(=O)[nH]c(Nc3c4c(cc5c3CCC5)CCC4)nc2n1` [Example 44], the inhibition at 24 µM stood at 21%.

The record behind these values is patent US20240287079A1, “6-AMINOPYRAZOLOPYRIMIDINE COMPOUND AND PHARMACEUTICAL USE THEREOF” (Japan Tobacco Inc., priority 2021, published 2024).
